Measured values published in paper PMC7550284, “The functional cooperation of 5-HT1A and mGlu4R in HEK-293 cell line” (Pharmacological Reports, 2020).

Legend:
[1] = biological target: T1, mGlu4R (Homo sapiens, UniProt Q14833); test: Forskolin-induced cAMP accumulation in T-REx 293 cells expressing both 5-HT1A-HALO and mGlu4R-SNAP, L-glutamate response; assay type: cell-based; details: SSZ 100 μM; +Tet
T1 construct: expressed in transfected cells
Experimental: (§1) The cell line was maintained in DMEM medium supplemented with 10% FBS (tetracycline free), 2 mM Glutamax I (Lonza,), 100 µg/mL Zeocin and 10 µg/mL blasticidin (Invitrogen). T-REx 293 cells were treated with a mixture of plasmids (0.1 µg pTet-SNAP-GRM4 and 0.9 µg pOG44) and GeneJuice transfection reagent according to the manufacturer’s instructions (Novagen). After 48 h, selection for the stably integrated plasmid with 100 µg/mL hygromycin B (Invitrogen) began. In parallel experiments, the HALO-5-HT1A plasmid was introduced into T-REx 293 cells or cells with the inducible expression of SNAP-GRM4 to generate a cell line that expressed both receptors. In the double expression system (as well as in other experiments), 5-HT1A was stably expressed, and mGlu4R expression was induced by tetracycline treatment (+ Tet; 0.75 µg/mL) (Fig. S3). One additional cell line was generated by cloning the 5-HT1A insert (BamHI/XhoI) into the pSNAPf vector ([…]).
(§2) Each experiment was performed three times (n = 3), and each data point was in triplicate. The curves for the data shown were fitted to a three-parameter logistic equation, allowing for the determination of IC50 values and Emax. For comparison of IC50 between the curves, t test was applied. The ONE way ANOVA and Tukey’s post hoc test were used for in vitro receptor interaction assays statistics.

[2] = biological target: T2, 5-HT1A receptor (Homo sapiens, UniProt P08908); test: Forskolin-induced cAMP accumulation in T-REx 293 cells expressing both 5-HT1A-HALO and mGlu4R-SNAP, 5-HT1A agonist response; assay type: cell-based; details: +Tet
T2 construct: expressed in transfected cells
T2 sequence (P08908 1-422): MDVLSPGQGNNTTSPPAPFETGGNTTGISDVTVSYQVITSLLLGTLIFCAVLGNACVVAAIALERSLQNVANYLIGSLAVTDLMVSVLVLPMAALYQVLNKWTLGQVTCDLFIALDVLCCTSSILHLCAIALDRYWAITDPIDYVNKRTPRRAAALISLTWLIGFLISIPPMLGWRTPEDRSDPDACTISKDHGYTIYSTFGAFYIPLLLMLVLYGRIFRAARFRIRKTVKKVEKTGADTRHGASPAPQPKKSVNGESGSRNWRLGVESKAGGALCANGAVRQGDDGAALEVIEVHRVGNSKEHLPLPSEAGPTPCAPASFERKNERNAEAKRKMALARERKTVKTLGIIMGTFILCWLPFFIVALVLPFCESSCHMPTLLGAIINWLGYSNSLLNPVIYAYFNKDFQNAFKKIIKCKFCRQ
Experimental: as §1, §2

[3] = test system: mGlu4R; test: Forskolin-induced cAMP accumulation in T-REx 293 cells expressing both 5-HT1A-HALO and mGlu4R-SNAP, L-glutamate response; assay type: cell-based, human; details: without tetracycline induction (−Tet); curve parameters impossible to determine
Experimental: as §1, §2

[4] = biological target: T2, 5-HT1A receptor; test: Forskolin-induced cAMP accumulation (HTRF) in T-REx-293-h5-HT1A-SNAP cells; assay type: cell-based; details: cAMP assay, Fig. 1b
Experimental: as §1, §2

[5] = biological target: T3, hmGlu4 receptor homodimer (Homo sapiens, UniProt Q14833); test: HTRF-FRET receptor interaction assay, mGlu4-SNAP homodimers (Snap-Tb/Snap-Green); assay type: cell-based; details: in presence of L-glutamate; VU0155041 10 μM, LY341495 100 µM
T3 construct: expressed in transfected cells
T3 sequence (Q14833 33-912): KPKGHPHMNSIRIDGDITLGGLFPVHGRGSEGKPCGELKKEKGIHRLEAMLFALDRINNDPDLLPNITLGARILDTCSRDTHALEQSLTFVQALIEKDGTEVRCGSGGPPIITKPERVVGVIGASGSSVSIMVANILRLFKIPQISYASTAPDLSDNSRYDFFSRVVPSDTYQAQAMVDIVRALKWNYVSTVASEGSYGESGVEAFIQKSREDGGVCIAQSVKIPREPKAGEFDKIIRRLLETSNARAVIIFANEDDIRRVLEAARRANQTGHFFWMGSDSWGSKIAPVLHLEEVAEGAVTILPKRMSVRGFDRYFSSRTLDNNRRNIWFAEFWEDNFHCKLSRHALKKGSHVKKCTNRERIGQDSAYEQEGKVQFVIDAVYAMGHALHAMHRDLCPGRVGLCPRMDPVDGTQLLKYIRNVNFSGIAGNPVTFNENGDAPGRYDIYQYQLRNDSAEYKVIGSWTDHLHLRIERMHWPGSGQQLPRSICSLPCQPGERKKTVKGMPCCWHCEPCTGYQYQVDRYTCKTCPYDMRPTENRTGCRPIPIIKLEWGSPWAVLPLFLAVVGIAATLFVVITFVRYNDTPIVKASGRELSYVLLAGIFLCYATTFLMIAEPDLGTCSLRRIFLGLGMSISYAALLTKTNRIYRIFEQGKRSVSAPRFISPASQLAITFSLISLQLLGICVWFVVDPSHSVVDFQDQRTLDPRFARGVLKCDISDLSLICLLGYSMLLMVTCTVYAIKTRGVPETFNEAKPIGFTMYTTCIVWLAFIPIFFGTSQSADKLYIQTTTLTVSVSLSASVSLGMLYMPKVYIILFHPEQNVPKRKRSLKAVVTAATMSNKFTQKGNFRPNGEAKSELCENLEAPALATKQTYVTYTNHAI
Experimental: The intermolecular interaction was presented as a ratio (FRET/Snap-Tb) x10e^4.
A homogenous time-resolved FRET assay was used to analyze the interaction between receptors labeled with Snap-Tb and Snap-green. For each experiment, a group named “mix cells” (1:1) was added, which corresponded to a mixture of cells separately labeled with one substrate depending on the experimental procedure and mixed immediately before FRET measurement.

T1 sequence (Q14833 33-912): as above

## O=C(O)c1cc(/N=N/c2ccc(S(=O)(=O)Nc3ccccn3)cc2)ccc1O [Sulfasalazine, sulfasalazine]
[1]
  Effect of sulfasalazine treatment on the dose–response curve of glutamate: shifted the dose–response curve of glutamate to the left
[2]; SSZ 100 μM, versus cells without SSZ
  Effect of sulfasalazine treatment on 5-HT1A activity in presence of mGlu4 receptors: significantly enhanced

## CCCN(CCC)[C@@H]1CCc2cccc(O)c2C1 [(R)-(+)-8-OH DPAT, (R)-(+)-8-hydroxy-DPAT]
[2]
  Effect on forskolin-stimulated cAMP accumulation after induction of mGlu4 receptor expression: abolished

## N[C@@H](CCC(=O)O)C(=O)O [L-glutamate]
[3]
  Effect on forskolin-induced cAMP accumulation without induction of mGlu4 receptor expression: not effective

## COc1ccccc1N1CCN(CC(C(=O)NC(C)(C)C)c2ccccc2)CC1 (stereo not drawn) [WAY100135]
[4]
  Effect of antagonist on the agonist (R)-(+)-8-OH DPAT Emax: totally abolished

## O=C(Nc1cc(Cl)cc(Cl)c1)[C@H]1CCCC[C@H]1C(=O)O [VU0155041]
[5]
  Effect on FRET signal / interaction between mGluR4 monomers: enhanced interaction
